Measurements from PubChem BioAssay (NCI).
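Each compound was tested at five concentrations against cells in 96-well plates for 48 hours. GI50: concentration for 50% inhibition of growth. Definition used: TGI = concentration required for complete inhibition of growth.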

Key:
Assay in all cases: NCI-60 cell line screen, 48 h
786-0 renal = tested on: 786-0 renal
COLO 205 colon = tested on: COLO 205 colon
HCT-116 colon = tested on: HCT-116 colon
HOP-92 NSCLC = tested on: HOP-92 NSCLC
HS 578T breast = tested on: HS 578T breast
LOX IMVI melanoma = tested on: LOX IMVI melanoma
M14 melanoma = tested on: M14 melanoma
NCI-H460 lung = tested on: NCI-H460 lung
SK-MEL-2 melanoma = tested on: SK-MEL-2 melanoma
SK-MEL-28 melanoma = tested on: SK-MEL-28 melanoma

SMILES	GI50 (786-0 renal) [µM]	TGI (786-0 renal) [µM]	GI50 (COLO 205 colon) [µM]	TGI (COLO 205 colon) [µM]	GI50 (HCT-116 colon) [µM]	TGI (HCT-116 colon) [µM]	GI50 (HOP-92 NSCLC) [µM]	TGI (HOP-92 NSCLC) [µM]	GI50 (HS 578T breast) [µM]	TGI (HS 578T breast) [µM]	GI50 (LOX IMVI melanoma) [µM]	TGI (LOX IMVI melanoma) [µM]	GI50 (M14 melanoma) [µM]	TGI (M14 melanoma) [µM]	GI50 (NCI-H460 lung) [µM]	TGI (NCI-H460 lung) [µM]	GI50 (SK-MEL-2 melanoma) [µM]	TGI (SK-MEL-2 melanoma) [µM]	GI50 (SK-MEL-28 melanoma) [µM]	TGI (SK-MEL-28 melanoma) [µM]
Cc1ccccc1NC(=O)NC(CC(N)=O)c1ccc2c(c1)nc(-c1cccc(Oc3ccc(C(C)(C)C)cc3)c1)n2CCCN1CCCCC1C (stereo unspecified)	4.19	8.66	1.82	3.35	1.71	3.16	1.94	7.33	5.58	16.3	1.67	3.14	1.83	3.44	2	3.87	11.1	23.3	1.89	3.51
Cn1c(=O)c(Cc2ccc(F)cc2F)cc2cnc(NC3CCOCC3)nc21	> 25	> 25	> 25	> 25	> 25	> 25	2.13	> 25	> 23.6	> 25	> 25	> 25	> 25	> 25	> 25	> 25	> 25	> 25	> 25	> 25
Oc1ccc2ccccc2c1/C=N\Nc1ccccn1	0.618	4.58	27.6	> 100	0.318	> 39.2	0.403	> 100	1.4	> 34.5	0.275		0.441	5.34	0.336	1.75		> 49	8.81	> 100
COc1ccc(Cc2ccccc2C(=O)O)c2ccccc12		> 100		34.5		47.3		61.9		57.8		54.4		> 100		38.9		54.5		64.2
Cn1cccc1-c1cc(-c2ccc(Br)cc2)nc(N)c1C#N	> 100	> 100	> 100	> 100	> 100	> 100	47.8	> 100	> 100	> 100	> 100	> 100			> 100	> 100	> 100	> 100	> 100	> 100
O=C1NC(=NCc2ccccn2)S/C1=C\c1ccc2ncccc2c1	13.4	> 25	7.68	> 25	8.86	> 25	6.5	> 21.8	6.12	21.4	13.1	> 25	11.6	> 25	9.07	> 25	10.7	> 22.8	> 23.7	> 25
Cc1ccc(Cl)cc1Nc1nc(C(F)(F)F)ccc1C(=O)Oc1ccc(Cl)cc1	14.3	30.8	9.81	> 100	4.45	20	1.92	14.8	3.13	14.8	5.21	21.9	18.1	> 100	16.4	54.2	17.7	> 100	21.9	> 100
COc1cc(/C=C/C(=O)c2ccc(Nc3nc(Nc4ccc(F)cc4)nc(Nc4ccc(F)cc4)n3)cc2)cc(OC)c1OC	2.66	12	3.5	> 100	2.56	> 100	2.3	42.6	16.7	> 100	6.73	> 100	6.55	90.8	7.92	> 100	3.99	33.2	26.7	> 100
O=C1c2cccnc2-c2nc(-c3ccc([N+](=O)[O-])cc3)cc3c2c1nc1ccccc13	10.4	40.1	5.54	11.9	2.56	> 26.1	24	83.6	4.1	23.6	2.28	> 100	1.9	4.43	2.34	8.62	3.3	26.5	12.7	27.8
Cc1ccc(/C=C(\C#N)n2nnc3cc(F)c(F)cc32)cc1	2.5	11.9	1.82	3.76	1.69	7.79	2.37	8.32	4.17	44.9	2.88	11.4	2.07	14.9	3.52	11.3	2.26	7.97	6.79	> 100
NCCOc1ccccn1		> 100		> 100		> 100		> 100		> 100		> 100		> 100		> 100		> 100		> 100
CO/N=C1/c2cc(OC)ccc2-c2c(NOC)nc3ccccc3c21	17.7	34.2	41.3	> 100	22.6	49.2	16	46.2	18	51	26.7	> 100	> 100	> 100	29.5	> 100	24.7	88.5	85.2	> 100
Cc1c2c(nn1-c1ccc(S/N=C3\SCC(=O)CN3c3ccccc3)cc1)-c1ccccc1CC2	13.3	> 50	> 50	> 50	6.5	15.9	> 50	> 50	15.5	> 50	5.59	34.2	13.4	43.7	15.2	> 50	18.2	47	28.5	> 50
